This passage reports IC50 results from ChEMBL document CHEMBL2375352, “Spirostanoids with 1,4-dien-3-one or 3β,7α-diol-5,6-ene moieties from Solanum violaceum” (Bioorg Med Chem Lett, 2013).

Converted amounts (≈) assume the structure as drawn. A value given as a limit tells only on which side of the number the result lay.

For experiment [1], the system named is A549. Briefly: Cytotoxicity against human A549 cells. It is filed as functional, cell-based.
Experiment [2] relates to MDA-MB-231. Briefly: Cytotoxicity against human MDA-MB-231 cells. Type of experiment: functional, cell-based.
Experiment [3] has as its system MCF7. In words: Cytotoxicity against human MCF7 cells. Type of experiment: functional, cell-based.
In experiment [4] the test system is HepG2. Briefly: Cytotoxicity against human HepG2 cells. It is filed as functional, cell-based.
A short description of experiment [5]: Cytotoxicity against human Hep3B cells. It is filed as functional, cell-based, Hep 3B2.

By IC50 is commonly meant the concentration that inhibits the measured activity by half. For `COc1cc2ccc(=O)oc2cc1O` [SCOPOLETIN], the IC50 in experiment [1] is greater than 20 µg/mL; in experiment [2], greater than 20 µg/mL; in experiment [3], 17.1 µg/mL (≈ 89 µM); in experiment [4] it was greater than 20 µg/mL; in experiment [5] it was greater than 13.2 µg/mL.
Consider `C[C@@H]1CC[C@@]2(OC1)O[C@H]1C[C@H]3[C@@H]4CCC5=CC(=O)CC[C@]5(C)[C@H]4CC[C@]3(C)[C@H]1[C@@H]2C` [DIOSGENONE], for which the IC50 in experiment [1] is greater than 20 µg/mL; in experiment [2] it was greater than 20 µg/mL; in experiment [3], greater than 20 µg/mL; in experiment [4], 13.4 µg/mL (≈ 32.6 µM); in experiment [5], greater than 20 µg/mL.
For the molecule `CC(C)[C@@H](C)/C=C/[C@@H](C)[C@H]1CC[C@@H]2[C@]1(C)CC[C@H]1[C@]23C=C[C@]2(C[C@@H](O)CC[C@]12C)OO3` [ERGOSTEROL PEROXIDE], the IC50 in experiment [1] came to 14.3 µg/mL (≈ 33.4 µM); in experiment [2], 16.7 µg/mL (≈ 39.1 µM); in experiment [3], 13.4 µg/mL (≈ 31.3 µM); in experiment [4], 15.3 µg/mL (≈ 35.6 µM); in experiment [5], 16.5 µg/mL (≈ 38.5 µM).
Regarding `C[C@H]1CC[C@@]2(OC1)O[C@H]1C[C@H]3[C@@H]4CC=C5C[C@@H](O)CC[C@]5(C)[C@H]4CC[C@]3(C)[C@H]1[C@@H]2C`, the IC50 in experiment [1], in experiment [2], in experiment [3], in experiment [4] and in experiment [5] was greater than 20 µg/mL in each case.
On to `CC[C@H](/C=C/[C@@H](C)[C@H]1CC[C@H]2[C@@H]3C(=O)C=C4C[C@@H](O)CC[C@]4(C)[C@H]3CC[C@]12C)C(C)C`, for which the IC50 in experiment [1], in experiment [2], in experiment [3], in experiment [4] and in experiment [5] was greater than 20 µg/mL in each case.
As for `CC[C@H](CC[C@@H](C)[C@H]1CC[C@H]2[C@@H]3C(=O)C=C4C[C@@H](O)CC[C@]4(C)[C@H]3CC[C@]12C)C(C)C`, the IC50 in experiment [1], in experiment [2], in experiment [3], in experiment [4] and in experiment [5] was greater than 20 µg/mL throughout.
Consider `C[C@@H]1CC[C@@]2(OC1)O[C@H]1C[C@H]3[C@@H]4CC=C5C[C@@H](O)CC[C@]5(C)[C@H]4CC[C@]3(C)[C@H]1[C@@H]2C` [DISOGENIN], for which the IC50 in experiment [1], in experiment [2], in experiment [3], in experiment [4] and in experiment [5] was greater than 20 µg/mL in each case.
`COc1cccc2c1C(=O)c1c(O)c3c(c(O)c1C2=O)C[C@@](O)(C(=O)CO)C[C@@H]3O[C@H]1C[C@H](N)[C@H](O)[C@H](C)O1` [DOXORUBICIN]: the IC50 in experiment [2] stood at 0.38 µg/mL (≈ 0.699 µM); in experiment [3] it was 0.29 µg/mL (≈ 0.534 µM); in experiment [4], 0.4 µg/mL (≈ 0.736 µM); in experiment [5], 0.24 µg/mL (≈ 0.442 µM).
As for `CC(C)[C@@H](C)/C=C/[C@@H](C)[C@H]1CC[C@@H]2[C@]1(C)CC=C1[C@]23C=C[C@]2(C[C@@H](O)CC[C@]12C)OO3`, the IC50 in experiment [1] amounted to 10.4 µg/mL (≈ 24.3 µM); in experiment [2] it was 7.32 µg/mL (≈ 17.2 µM); in experiment [3], 9.18 µg/mL (≈ 21.5 µM); in experiment [4], 7.73 µg/mL (≈ 18.1 µM); in experiment [5], 15.5 µg/mL (≈ 36.4 µM).
`COc1cc([C@H]2OC[C@H]3[C@@H]2CO[C@@H]3c2cc(OC)c(O)c(OC)c2)cc(OC)c1O` [SYRINGARESINOL]: the IC50 in experiment [1] was greater than 20 µg/mL; in experiment [2] it was greater than 20 µg/mL; in experiment [3], greater than 20 µg/mL; in experiment [4], greater than 20 µg/mL; in experiment [5], 15.7 µg/mL (≈ 37.6 µM).
